Reference: ChEMBL document CHEMBL1201862, “PubChem BioAssay data set” (2004)
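Cells were grown in 96-well plates and exposed to each compound for 48 hours at five concentrations; endpoints were interpolated linearly between bracketing concentrations, or set to the highest concentration if not reached. GI50: concentration for 50% inhibition of growth.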 Activity calls are given as the source filed them. No stated cut-off is given here; in the data, active = GI50 up to about 1.1 µM and inactive = higher.

Legend:
Assay in all cases: NCI anticancer screen, dose series, 48 h
[1] = tested on: KM-20L2
[2] = tested on: XF498
[3] = tested on: DLD-1
[4] = tested on: DMS-114
[5] = tested on: RXF 631
[6] = tested on: SNB-78
[7] = tested on: M19-MEL
[8] = tested on: DMS-273
[9] = tested on: HOP-18

## Cc1cc(C)nc(NS(=O)(=O)c2ccc(Nc3c4ccc(Cl)cc4nc4c(C(=O)Nc5ccc(S(N)(=O)=O)cc5)cccc34)cc2)n1
[1]
  GI50: 18.6 µM (inactive)
[2]
  GI50: 18.4 µM (inactive)
[3]
  GI50: 13.8 µM (inactive)
[4]
  GI50: 22.8 µM (inactive)
[5]
  GI50: 18.2 µM (inactive)
[6]
  GI50: 49.9 µM (inactive)
[7]
  GI50: 25.4 µM (inactive)

## COCCCCCC(=O)CP(=O)(OC)OC
[1]
  GI50: > 100 µM (inactive)
[2]
  GI50: > 79.6 µM (inactive)
[3]
  GI50: > 100 µM (inactive)
[4]
  GI50: > 100 µM (inactive)
[6]
  GI50: > 100 µM (inactive)
[8]
  GI50: > 100 µM (inactive)
[7]
  GI50: > 100 µM (inactive)
[9]
  GI50: > 100 µM (inactive)

## CC(C)=CCC/C(C)=C/CC/C(C)=C/CC/C=C(\C)CC/C=C(\C)CCC1SC1(C)C (stereo not given)
[1]
  GI50: > 100 µM (inactive)
[3]
  GI50: > 100 µM (inactive)
[4]
  GI50: 75.7 µM (inactive)
[6]
  GI50: > 100 µM (inactive)
[8]
  GI50: > 100 µM (inactive)
[7]
  GI50: > 100 µM (inactive)
[9]
  GI50: > 100 µM (inactive)

## COc1ccccc1N1C(=O)C2c3[nH]c4ccccc4c3C3CCC(C(C)(C)C)CC3C2C1=O (stereo not given)
[1]
  GI50: > 100 µM (inactive)
[2]
  GI50: > 100 µM (inactive)
[3]
  GI50: > 100 µM (inactive)
[4]
  GI50: > 100 µM (inactive)
[6]
  GI50: > 100 µM (inactive)
[8]
  GI50: > 100 µM (inactive)
[7]
  GI50: > 100 µM (inactive)
[9]
  GI50: > 100 µM (inactive)

## CCCCC1(OC(=O)CCC(=O)O)CCC2(CCC(C)C(C/C=C(C)/C=C/C(O)C(C)/C=C/C(=O)O)O2)OC1CC/C(C)=C/C(=O)O (stereo not given)
[1]
  GI50: 10.9 µM (inactive)
[2]
  GI50: 2.03 µM (inactive)
[3]
  GI50: 3.25 µM (inactive)
[4]
  GI50: 2.45 µM (inactive)
[5]
  GI50: 1.93 µM (inactive)
[6]
  GI50: 2.55 µM (inactive)
[8]
  GI50: 5.94 µM (inactive)
[7]
  GI50: 2.84 µM (inactive)
[9]
  GI50: 4.58 µM (inactive)

## CCn1cc(/C=C/C(C)c2cn(CC)c(=O)[nH]c2=O)c(=O)[nH]c1=O (stereo not given)
[1]
  GI50: > 100 µM (inactive)
[3]
  GI50: > 100 µM (inactive)
[4]
  GI50: > 100 µM (inactive)
[5]
  GI50: > 100 µM (inactive)
[8]
  GI50: > 100 µM (inactive)
[7]
  GI50: > 100 µM (inactive)
[9]
  GI50: > 100 µM (inactive)

## O=C(NCCOCCO)c1ccc(O)cc1
[1]
  GI50: > 100 µM (inactive)
[2]
  GI50: 55 µM (inactive)
[3]
  GI50: > 100 µM (inactive)
[4]
  GI50: > 100 µM (inactive)
[8]
  GI50: > 100 µM (inactive)
[7]
  GI50: > 100 µM (inactive)
[9]
  GI50: > 100 µM (inactive)

## COc1cc2c[n+](C)c3c4cc5c(cc4ccc3c2cc1OC)OCO5 [NITIDINE CHLORIDE]
[1]
  GI50: 0.608 µM (active)
[2]
  GI50: 2.66 µM (inactive)
[3]
  GI50: 14.9 µM (inactive)
[4]
  GI50: 1.24 µM (inactive)
[5]
  GI50: 19.8 µM (inactive)
[6]
  GI50: 3.37 µM (inactive)
[8]
  GI50: 0.745 µM (active)
[7]
  GI50: 1.27 µM (inactive)
[9]
  GI50: 19.5 µM (inactive)

## CC1(C)CCC(Sc2ccccc2)O1 (stereo not given)
[1]
  GI50: > 100 µM (inactive)
[2]
  GI50: > 100 µM (inactive)
[3]
  GI50: > 100 µM (inactive)
[4]
  GI50: > 100 µM (inactive)
[6]
  GI50: > 100 µM (inactive)
[8]
  GI50: > 100 µM (inactive)
[7]
  GI50: > 100 µM (inactive)

## C/C=C1/C=CC2c3[nH]c4ccccc4c3CCN2C1 (stereo not given)
[1]
  GI50: > 400 µM (inactive)
[2]
  GI50: > 400 µM (inactive)
[3]
  GI50: > 400 µM (inactive)
[4]
  GI50: 296 µM (inactive)
[5]
  GI50: > 400 µM (inactive)
[8]
  GI50: > 400 µM (inactive)
[7]
  GI50: > 400 µM (inactive)
[9]
  GI50: 7.11 µM (inactive)

## COc1cc(CC(=O)c2ccc3c(c2)OCO3)cc(OC)c1OC
[1]
  GI50: > 100 µM (inactive)
[3]
  GI50: > 100 µM (inactive)
[4]
  GI50: 27.9 µM (inactive)
[5]
  GI50: 53.7 µM (inactive)
[6]
  GI50: > 100 µM (inactive)
[7]
  GI50: > 100 µM (inactive)
[9]
  GI50: > 100 µM (inactive)

## CCN(CC)CC(C(C)=O)C(c1ccccc1)c1c(O)c2ccccc2oc1=O (stereo not given)
[1]
  GI50: > 100 µM (inactive)
[2]
  GI50: > 100 µM (inactive)
[3]
  GI50: > 100 µM (inactive)
[4]
  GI50: > 100 µM (inactive)
[6]
  GI50: > 100 µM (inactive)
[8]
  GI50: > 100 µM (inactive)
[7]
  GI50: > 100 µM (inactive)
[9]
  GI50: > 100 µM (inactive)

## Cn1nc(-c2ccccc2)c2c(/C=C/c3ccc(F)cc3)onc2c1=O
[1]
  GI50: > 100 µM (inactive)
[2]
  GI50: 14.8 µM (inactive)
[3]
  GI50: > 100 µM (inactive)
[8]
  GI50: > 100 µM (inactive)
[7]
  GI50: > 100 µM (inactive)
[9]
  GI50: 11.3 µM (inactive)

## COC(=O)[C@@H]1C(=O)O[C@@H](c2ccc3c(c2)OCO3)[C@@H]1C(=O)OC.COC(=O)[C@H]1C(=O)O[C@@H](c2ccc3c(c2)OCO3)[C@@H]1C(=O)OC
[1]
  GI50: > 100 µM (inactive)
[3]
  GI50: > 100 µM (inactive)
[4]
  GI50: > 100 µM (inactive)
[5]
  GI50: > 100 µM (inactive)
[6]
  GI50: > 100 µM (inactive)
[8]
  GI50: > 100 µM (inactive)
[7]
  GI50: > 100 µM (inactive)

## COc1ccc(C2CCc3cc4c(cc3/C2=N/OC(C)=O)OCO4)cc1OC (stereo not given)
[1]
  GI50: 22.3 µM (inactive)
[2]
  GI50: 18.4 µM (inactive)
[4]
  GI50: 10.7 µM (inactive)
[5]
  GI50: 25.5 µM (inactive)
[6]
  GI50: 41.4 µM (inactive)
[8]
  GI50: 24.8 µM (inactive)
[7]
  GI50: 22.1 µM (inactive)
[9]
  GI50: 26.7 µM (inactive)

## NC(=O)Nc1c([N+](=O)[O-])cc(C(F)(F)F)cc1[N+](=O)[O-]
[1]
  GI50: 29.2 µM (inactive)
[2]
  GI50: 53.6 µM (inactive)
[5]
  GI50: 65.9 µM (inactive)
[6]
  GI50: > 100 µM (inactive)
[8]
  GI50: > 100 µM (inactive)

## COc1ccc(NC(=O)CC/C(CC(=O)c2ccco2)=N/Nc2ccc([N+](=O)[O-])cc2[N+](=O)[O-])cc1
[1]
  GI50: > 100 µM (inactive)
[2]
  GI50: 22.8 µM (inactive)
[4]
  GI50: 23.6 µM (inactive)
[5]
  GI50: 38.8 µM (inactive)
[6]
  GI50: > 100 µM (inactive)
[8]
  GI50: 57.7 µM (inactive)
[7]
  GI50: 58.1 µM (inactive)
[9]
  GI50: 26.2 µM (inactive)

## CN(C)c1ccc(/C=c2\sc3nc4ccccc4n3c2=O)cc1
[1]
  GI50: > 100 µM (inactive)
[2]
  GI50: > 100 µM (inactive)
[3]
  GI50: > 100 µM (inactive)
[4]
  GI50: > 100 µM (inactive)
[5]
  GI50: > 100 µM (inactive)
[6]
  GI50: > 100 µM (inactive)
[8]
  GI50: > 100 µM (inactive)
[7]
  GI50: > 100 µM (inactive)
[9]
  GI50: > 100 µM (inactive)

## Cc1cc(Cl)cc2c1NC(=O)C2=O.O=C(c1ccccc1)C(F)(F)F
[1]
  GI50: 76 µM (inactive)
[2]
  GI50: 30.1 µM (inactive)
[3]
  GI50: 60.1 µM (inactive)
[4]
  GI50: 30.7 µM (inactive)
[6]
  GI50: 24.4 µM (inactive)
[8]
  GI50: 50.7 µM (inactive)
[7]
  GI50: 13.3 µM (inactive)
[9]
  GI50: 59.7 µM (inactive)

## C=CCN(N=O)C(=O)ON1C(=O)CCC1=O
[1]
  GI50: > 100 µM (inactive)
[3]
  GI50: > 100 µM (inactive)
[4]
  GI50: > 100 µM (inactive)
[5]
  GI50: > 100 µM (inactive)
[6]
  GI50: > 100 µM (inactive)
[8]
  GI50: > 100 µM (inactive)
[7]
  GI50: > 100 µM (inactive)
[9]
  GI50: > 100 µM (inactive)

## Cc1c2ccncc2c(C)c2c1[nH]c1ccc(OCC(F)(F)F)cc12
[1]
  GI50: 1.47 µM (inactive)
[2]
  GI50: 1.61 µM (inactive)
[3]
  GI50: 1.57 µM (inactive)
[4]
  GI50: 1.84 µM (inactive)
[5]
  GI50: 1.57 µM (inactive)
[6]
  GI50: 2.92 µM (inactive)
[8]
  GI50: 0.82 µM (active)
[7]
  GI50: 1.84 µM (inactive)

## OCc1ccc(-c2ccc(-c3ccc(CO)s3)o2)s1
[1]
  GI50: 0.0405 µM (active)
[2]
  GI50: 0.0562 µM (active)
[3]
  GI50: 6.05 µM (inactive)
[4]
  GI50: 13.4 µM (inactive)
[8]
  GI50: 1.13 µM (inactive)
[7]
  GI50: 41.7 µM (inactive)
[9]
  GI50: 0.341 µM (active)

## O=C(CCc1nnc2s/c(=C\c3ccccc3)c(=O)n12)Nc1cc(Cl)ccc1Cl
[1]
  GI50: > 100 µM (inactive)
[2]
  GI50: > 100 µM (inactive)
[3]
  GI50: > 100 µM (inactive)
[4]
  GI50: > 100 µM (inactive)
[5]
  GI50: > 100 µM (inactive)
[6]
  GI50: > 100 µM (inactive)
[8]
  GI50: > 100 µM (inactive)
[7]
  GI50: > 100 µM (inactive)
[9]
  GI50: > 100 µM (inactive)
